Measurements published in patent US9790235B2, “MK2 inhibitors and uses thereof” (Celgene CAR LLC, priority 2014, dated 2017).
Where two headings read alike, the source gives them in different places.

How the values were obtained:
[1] = molecular target: T1, MK2 (Homo sapiens (Human), UniProt P49137)
[2] = molecular target: T1, MK2; assay: MK2 cellular assay, total and phospho-Hsp27 (Serine 78) by MSD ELISA (Thp1); assay type: cell-based
Procedure, shortened: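 PMA-differentiated (10 ng/mL, 72 h) Thp-1 cells were pretreated with compound (top 3000 nM) for 1 h at 37 °C, then stimulated with 50 ng/mL LPS for 45 min. Lysate phospho-Hsp27 (Ser78) and total Hsp27 were read by MSD electrochemiluminescence ELISA, and the value is expressed as percent phospho/total signal per well.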

[3] = molecular target: p38α activated, mitogen-activated protein kinase-activated protein kinase 2 (MAPKAP-K2 or MK2) enzyme (Homo sapiens (Human), UniProt P49137); assay: MK2 Omnia continuous-read kinase assay for compound potency; assay type: biochemical
p38α activated, mitogen-activated protein kinase-activated protein kinase 2 (MAPKAP-K2 or MK2) enzyme, sequence (P49137 whole entry): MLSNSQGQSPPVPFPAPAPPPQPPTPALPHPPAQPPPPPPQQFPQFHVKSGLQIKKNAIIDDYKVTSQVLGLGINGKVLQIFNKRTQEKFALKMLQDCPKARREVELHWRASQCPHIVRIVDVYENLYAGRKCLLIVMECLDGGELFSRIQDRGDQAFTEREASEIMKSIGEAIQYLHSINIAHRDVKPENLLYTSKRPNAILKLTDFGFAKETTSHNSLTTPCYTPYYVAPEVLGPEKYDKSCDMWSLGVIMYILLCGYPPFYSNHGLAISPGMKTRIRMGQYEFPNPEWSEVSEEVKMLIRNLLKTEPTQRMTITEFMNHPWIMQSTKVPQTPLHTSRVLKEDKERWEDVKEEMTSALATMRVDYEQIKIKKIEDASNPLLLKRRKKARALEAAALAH
Procedure, shortened: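 Activated MK2 (0.4 nM) was run with S/T3-Sox peptide and ATP, each at 10 μM (ATP at apparent KM), and Sox fluorescence was followed every 71 s for 2 h at room temperature. IC50 came from linear initial rates after no-enzyme subtraction, and apparent kinact/KI from kobs of single-exponential fits.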

[4] = percentage of modified protein after 60 minutes at room temperature, 10-fold excess of compound, MALDI (I-1 to I-50), magnetic bead MALDI (I-51 to I-129)
[5] = Thp-1 cells, 1 hour compound, 50 ng/mL LPS 45 minutes, p-HSP27 (Ser78)/total HSP27, read-out: pHSP27 signaling EC50
[6] = [MK-2]=0.4 nM, [ATP]=10 μM, [ST3-Sox]=10 μM, read-out: MK2 IC50
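Throughout, for Mass Modification: covalent binding read from centroid mass shift of compound-treated versus untreated intact MK2, shift divided by compound molecular weight, giving fraction of total protein bound.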

T1 sequence (P49137 whole entry): as above

## COCCOc1nc(Cl)cc(Nc2ccc3c(ccc4sc5c(c43)NC[C@@H](C)NC5=O)n2)n1 [I-67, (R)-3-((6-chloro-2-(2-methoxyethoxy)pyrimidin-4-yl)amino)-10-methyl-9,10,11,12-tetrahydro-8H-[1,4]diazepino[5′,6′:4,5]thieno[3,2-f]quinolin-8-one]
[1]; [4]
  Mass Modification: F (mass modification of 31-69%)
[2]; [5]
  EC50: 101 to 500 nM
[3]; [6]
  IC50: < 100 nM

## C[C@@H]1CNc2c(sc3ccc4nc(Oc5cc(Cl)nc(CO)n5)ccc4c23)C(=O)N1 [I-68, (R)-3-((6-chloro-2-(hydroxymethyl)pyrimidin-4-yl)oxy)-10-methyl-9,10,12-tetrahydro-8H-[1,4]diazepino[5′,6′:4,5]thieno[3,2-f]quinolin-8-one]
[1]; [4]
  Mass Modification: E (mass modification of ≧70%)
[2]; [5]
  EC50: < 100 nM
[3]; [6]
  IC50: < 100 nM

## COC(=O)c1nc(Cl)cc(Nc2ccc3c(ccc4sc5c(c43)NC[C@@H](C)NC5=O)n2)n1 [I-70, (R)-methyl 4-chloro-6-((10-methyl-8-oxo-9,10,11,12-tetrahydro-8H-[1,4]diazepino[5′,6′:4,5]thieno[3,2-f]quinolin-3-yl)amino)pyrimidine-2-carboxylate]
[1]
  Mass Modification: E (key: E: mass modification of ≧70%; F: mass modification of 31-69%; G: mass modification ≦30%)
[2]; [5]
  EC50: < 100 nM
[3]; read-out: MK2 IC50
  IC50: < 100 nM

## COC(=O)c1nc(Cl)cc(Oc2ccc3c(ccc4sc5c(c43)NC[C@@H](C)NC5=O)n2)n1 [I-71, (R)-methyl 4-chloro-6-((10-methyl-8-oxo-9,10,11,12-tetrahydro-8H-[1,4]diazepino[5′,6′:4,5]thieno[3,2-f]quinolin-3-yl)oxy)pyrimidine-2-carboxylate]
[1]; [4]
  Mass Modification: E (mass modification of ≧70%)
[2]; [5]
  EC50: < 100 nM
[3]; [6]
  IC50: < 100 nM

## C[C@@H]1CNc2c(sc3ccc4nc(Sc5ccnc(Cl)n5)ccc4c23)C(=O)N1 [I-72, (R)-3-((2-chloropyrimidin-4-yl)thio)-10-methy-9,10,11,12-tetrahydro-8H-[1,4]diazepino[5′,6′:4,5]thieno[3,2-f]quinolin-8-one]
[1]; [4]
  Mass Modification: G (mass modification ≦30%)
[2]; [5]
  EC50: > 1000 nM
[3]; [6]
  IC50: < 100 nM

## C[C@@H]1CNc2c(sc3ccc4nc(Nc5cc(F)nc(CN6CCN(C)CC6)n5)ccc4c23)C(=O)N1 [I-73, (R)-3-((6-fluoro-2-((4-methylpiperazin-1-yl)methyl)pyrimidin-4-yl)amino)-10-methyl-9,10,11,12-tetrahydro-8H-[1,4]diazepino[5′,6′:4,5]thieno[3,2-f]quinolin-8-one]
[1]; [4]
  Mass Modification: G (mass modification ≦30%)
[2]; [5]
  EC50: > 1000 nM
[3]; [6]
  IC50: < 100 nM

## C[C@@H]1CNc2c(sc3ccc4nc(Nc5cc(F)nc(CN6CCCCC6)n5)ccc4c23)C(=O)N1 [I-74, (R)-3-((6-fluoro-2-(piperidin-1-ylmethyl)pyrimidin-4-yl)amino)-10-methyl-9,10,11,12-tetrahydro-8H-[1,4]diazepino[5′,6′:4,5]thieno[3,2-f]quinolin-8-one]
[1]; [4]
  Mass Modification: E (mass modification of ≧70%)
[2]; [5]
  EC50: < 100 nM
[3]; [6]
  IC50: < 100 nM

## C[C@@H]1CNc2c(sc3ccc4nc(Oc5nc(Cl)nc(N(C)C)n5)ccc4c23)C(=O)N1 [I-75, (R)-3-((4-chloro-6-(dimethylamino)-1,3,5-triazin-2-yl)oxy)-10-methyl-9,10,11,12-tetrahydro-8H-[1,4]diazepino[5′,6′:4,5]thieno[3,2-f]quinolin-8-one]
[1]; [4]
  Mass Modification: E (mass modification of ≧70%)
[2]; [5]
  EC50: < 100 nM
[3]; [6]
  IC50: < 100 nM

## COc1nc(Cl)nc(Oc2ccc3c(ccc4sc5c(c43)NC[C@@H](C)NC5=O)n2)n1 [I-76, (R)-3-((4-chloro-6-methoxy-1,3,5-triazin-2-yl)oxy)-10-methyl-9,10,11,12-tetrahydro-8H-[1,4]diazepino[5′,6′:4,5]thieno[3,2-f]quinolin-8-one]
[1]; [4]
  Mass Modification: E (mass modification of ≧70%)
[2]; [5]
  EC50: > 1000 nM
[3]; [6]
  IC50: < 100 nM

## C[C@@H]1CNc2c(sc3ccc4nc(Oc5cnnc(Cl)c5)ccc4c23)C(=O)N1 [I-79, (R)-3-((6-chloropyridazin-4-yl)oxy)-10-methyl-9,10,11,12-tetrahydro-8H-[1,4]diazepino[5′,6′:4,5]thieno[3,2-f]quinolin-8-one]
[1]; [4]
  Mass Modification: E (mass modification of ≧70%)
[2]; [5]
  EC50: 101 to 500 nM
[3]; [6]
  IC50: < 100 nM

## C[C@@H]1CNc2c(sc3ccc4nc(Oc5nc(Cl)ncc5CN5CC6CC6C5)ccc4c23)C(=O)N1 (stereo partly drawn) [I-83, ((1OR)-3-((5-(3-azabicyclo[3.1.0]hexan-3-yl)methyl)-2-chloropyrimidin-4-yl)oxy)-10-methyl-9,10,11,12-tetrahydro-8H-[1,4]diazepino[5′,6′:4,5]thieno[3,2-f]quinolin-8-one]
[1]; [4]
  Mass Modification: E (mass modification of ≧70%)
[2]; [5]
  EC50: < 100 nM
[3]; [6]
  IC50: 101 to 500 nM

## C[C@@H]1CNc2c(sc3ccc4nc(Oc5nc(Cl)ncc5CN5CC6CC(C6)C5)ccc4c23)C(=O)N1 [I-85, (R)-3-((5-((3-azabicyclo[3.1.1]heptan-3-yl)methyl)-2-chloropyrimidin-4-yl)oxy)-10-methyl-9,10,11,12-tetrahydro-8H-[1,4]diazepino[5′,6′:4,5]thieno[3,2-f]quinolin-8-one]
[1]; [4]
  Mass Modification: E (mass modification of ≧70%)
[2]
  EC50: < 100 nM
[3]
  IC50: 101 to 500 nM

## C[C@@H]1CNc2c(sc3ccc4nc(Oc5nc(Cl)nc6c5COC6)ccc4c23)C(=O)N1 [I-86, (R)-3-((2-chloro-5,7-dihydrofuro[3,4-d]pyrimidin-4-yl)oxy)-10-methyl-9,10,11,12-tetrahydro-8H-[1,4]diazepino[5′,6′:4,5]thieno[3,2-f]quinolin-8-one]
[1]; [4]
  Mass Modification: E (mass modification of ≧70%)
[2]; [5]
  EC50: < 100 nM
[3]; [6]
  IC50: < 100 nM

## COCCN(C)Cc1cnc(Cl)nc1Oc1ccc2c(ccc3sc4c(c32)NC[C@@H](C)NC4=O)n1 [I-90, (R)-3-((2-chloro-5-(((2-methoxyethyl)(methyl)amino)methyl)pyrimidin-4-yl)oxy)-10-methyl-9,10,11,12-tetrahydro-8H-[1,4]diazepino[5′,6′:4,5]thieno[3,2-f]quinolin-8-one]
[1]; [4]
  Mass Modification: E (mass modification of ≧70%)
[2]; [5]
  EC50: < 100 nM
[3]; [6]
  IC50: 101 to 500 nM

## CCN1CCN(Cc2cnc(Cl)nc2Oc2ccc3c(ccc4sc5c(c43)NC[C@@H](C)NC5=O)n2)CC1 [I-94, (R)-3-((2-chloro-5-((4-ethylpiperazin-1-yl)methyl)pyrimidin-4-yl)oxy)-10-methyl-9,10,11,12-tetrahydro-8H-[1,4]diazepino[5′,6′:4,5]thieno[3,2-f]quinolin-8-one]
[1]; [4]
  Mass Modification: E (mass modification of ≧70%)
[2]; [5]
  EC50: > 1000 nM
[3]; [6]
  IC50: 101 to 500 nM

## C[C@@H]1CNc2c(sc3ccc4nc(Oc5nc(Cl)ncc5CN5CCCC(C)(C)C5)ccc4c23)C(=O)N1 [I-95, (R)-3-((2-chloro-5-((3,3-dimethylpiperidin-1-yl)methyl)pyrimidin-4-yl)oxy)-10-methyl-9,10,11,12-tetrahydro-8H-[1,4]diazepino[5′,6′:4,5]thieno[3,2-f]quinolin-8-one]
[1]; [4]
  Mass Modification: E (mass modification of ≧70%)
[2]; [5]
  EC50: < 100 nM
[3]; [6]
  IC50: 101 to 500 nM

## C[C@@H]1CNc2c(sc3ccc4nc(Oc5nc(Cl)ncc5COC5(C)COC5)ccc4c23)C(=O)N1 [I-103, (R)-3-((2-chloro-5-(((3-methyloxetan-3-yl)oxy)methyl)pyrimidin-4-yl)oxy)-10-methyl-9,10,11,12-tetrahydro-8H-[1,4]diazepino[5′,6′:4,5]thieno[3,2-f]quinolin-8-one]
[1]; [4]
  Mass Modification: E (mass modification of ≧70%)
[2]; [5]
  EC50: 101 to 500 nM
[3]; [6]
  IC50: < 100 nM

## C[C@@H]1CNc2c(sc3ccc4nc(Oc5nc(Cl)nc6c5CS(=O)(=O)CC6)ccc4c23)C(=O)N1 [I-105, (R)-3-((2-chloro-6,6-dioxido-7,8-dihydro-5H-thiopyrano[4,3-d]pyrimidin-4-yl)oxy)-10-methyl-9,10,11,12-tetrahydro-8H-[1,4]diazepino[5′,6′:4,5]thieno[3,2-f]quinolin-8-one]
[1]; [4]
  Mass Modification: E (mass modification of ≧70%)
[2]; [5]
  EC50: 101 to 500 nM
[3]; [6]
  IC50: < 100 nM

## CO[C@@H]1CCCN(Cc2cnc(Cl)nc2Oc2ccc3c(ccc4sc5c(c43)NC[C@@H](C)NC5=O)n2)C1 [I-107, (R)-3-((2-chloro-5-(((R)-3-methoxypiperidin-1-yl)methyl)pyrimidin-4-yl)oxy)-10-methyl-9,10,11,12-tetrahydro-H-[1,4]diazepino[5′,6′:4,5]thieno[3,2-f]quinolin-8-one]
[1]; [4]
  Mass Modification: E (mass modification of ≧70%)
[2]; [5]
  EC50: < 100 nM
[3]; [6]
  IC50: 101 to 500 nM

## C[C@@H]1CNc2c(sc3ccc4nc(Oc5nc(Cl)ncc5COCCC#N)ccc4c23)C(=O)N1 [I-111, (R)-3-((2-chloro-4-((10-methyl-8-oxo-9,10,11,12-tetrahydro-8H-[1,4]diazepino[5′,6′:4,5]thieno[3,2-f]quinolin-3-yl)oxy)pyrimidin-5-yl)methoxy)propanenitrile]
[1]; [4]
  Mass Modification: E (mass modification of ≧70%)
[2]; [5]
  EC50: 101 to 500 nM
[3]; [6]
  IC50: < 100 nM

## C[C@@H]1CNc2c(sc3ccc4nc(Oc5nc(Cl)ncc5CS(C)(=O)=O)ccc4c23)C(=O)N1 [I-112, (R)-3-((2-chloro-5-((methylsulfonyl)methyl)pyrimidin-4-yl)oxy)-10-methyl-9,10,11,12-tetrahydro-8H-[1,4]diazepino[5′,6′:4,5]thieno[3,2-f]quinolin-8-one]
[1]; [4]
  Mass Modification: E (mass modification of ≧70%)
[2]; [5]
  EC50: 101 to 500 nM
[3]; [6]
  IC50: < 100 nM
